Results published in patent US20240293400A1, “NOVEL AZAINDOLE DERIVATIVES AS ANTIVIRAL AGENTS” (Centre National de la Recherche Scientifique, priority 2021, published 2024).

Tests used:
Assay in all cases: Kinase panel Z'-LYTE/Adapta SelectScreen
Assay type in all cases: biochemical
Settings in all cases: 100 nM in 1% DMSO
NTRK2 (TRKB) = NTRK2 (TRKB) (Homo sapiens (Human), UniProt Q16620)
Protocol: (§1) The inhibitory activity of the compounds on a panel of kinases including, inter alia, AXL and FLT3 was evaluated by Thermo Fisher Scientific using Z′-LYTE® and Adapta® Select Screen technology.
(§2) The fluorescence-based biochemical test uses coupled enzymes and is based on the difference in sensitivity of the phosphorylated and non-phosphorylated peptides to proteolytic cleavage. The peptide substrate is labeled with 2 fluorophores—one at each end—allowing fluorescence transfer (FRET).
(§3) Compounds 1, 2 and 3 are tested in wells at the final concentration of 100 nM in 1% DMSO.

IKBKB (IKK beta) = IKBKB (IKK beta) (Homo sapiens (Human), UniProt O14920)
Protocol: as §1, §2, §3

PDGFRA (PDGFR alpha) = PDGFRA (PDGFR alpha) (Homo sapiens (Human), UniProt P16234)
Protocol: as §1, §2, §3

FGFR2 = FGFR2 (Homo sapiens (Human), UniProt P21802)
Sequence of FGFR2 (P21802 22-821): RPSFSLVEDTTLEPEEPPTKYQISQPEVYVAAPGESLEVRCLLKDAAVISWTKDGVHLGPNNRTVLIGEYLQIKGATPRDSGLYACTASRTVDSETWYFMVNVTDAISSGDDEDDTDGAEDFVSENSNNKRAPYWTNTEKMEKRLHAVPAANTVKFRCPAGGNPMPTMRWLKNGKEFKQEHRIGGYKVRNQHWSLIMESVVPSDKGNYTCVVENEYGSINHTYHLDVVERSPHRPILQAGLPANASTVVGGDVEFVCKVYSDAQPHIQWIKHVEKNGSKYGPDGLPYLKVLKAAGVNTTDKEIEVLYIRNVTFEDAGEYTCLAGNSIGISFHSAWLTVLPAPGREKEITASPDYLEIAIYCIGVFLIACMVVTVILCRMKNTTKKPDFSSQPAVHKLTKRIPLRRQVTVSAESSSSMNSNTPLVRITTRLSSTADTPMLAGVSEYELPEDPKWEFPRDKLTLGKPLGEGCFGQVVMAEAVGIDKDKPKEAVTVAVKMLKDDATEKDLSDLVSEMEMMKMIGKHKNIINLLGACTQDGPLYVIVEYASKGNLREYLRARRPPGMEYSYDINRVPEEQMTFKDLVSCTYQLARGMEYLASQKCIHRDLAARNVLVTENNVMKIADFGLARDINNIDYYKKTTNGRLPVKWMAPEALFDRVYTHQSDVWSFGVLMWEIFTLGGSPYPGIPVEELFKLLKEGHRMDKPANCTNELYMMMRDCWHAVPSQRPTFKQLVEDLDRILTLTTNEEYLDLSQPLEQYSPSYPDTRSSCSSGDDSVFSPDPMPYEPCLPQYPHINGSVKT
Protocol: as §1, §2, §3

FGFR1 = FGFR1 (Homo sapiens (Human), UniProt P11362)
Protocol: as §1, §2, §3

PLK1 = PLK1 (Homo sapiens (Human), UniProt P53350)
Protocol: as §1, §2, §3

JAK2 = JAK2 (Homo sapiens (Human), UniProt O60674)
Sequence of JAK2 (O60674 whole entry): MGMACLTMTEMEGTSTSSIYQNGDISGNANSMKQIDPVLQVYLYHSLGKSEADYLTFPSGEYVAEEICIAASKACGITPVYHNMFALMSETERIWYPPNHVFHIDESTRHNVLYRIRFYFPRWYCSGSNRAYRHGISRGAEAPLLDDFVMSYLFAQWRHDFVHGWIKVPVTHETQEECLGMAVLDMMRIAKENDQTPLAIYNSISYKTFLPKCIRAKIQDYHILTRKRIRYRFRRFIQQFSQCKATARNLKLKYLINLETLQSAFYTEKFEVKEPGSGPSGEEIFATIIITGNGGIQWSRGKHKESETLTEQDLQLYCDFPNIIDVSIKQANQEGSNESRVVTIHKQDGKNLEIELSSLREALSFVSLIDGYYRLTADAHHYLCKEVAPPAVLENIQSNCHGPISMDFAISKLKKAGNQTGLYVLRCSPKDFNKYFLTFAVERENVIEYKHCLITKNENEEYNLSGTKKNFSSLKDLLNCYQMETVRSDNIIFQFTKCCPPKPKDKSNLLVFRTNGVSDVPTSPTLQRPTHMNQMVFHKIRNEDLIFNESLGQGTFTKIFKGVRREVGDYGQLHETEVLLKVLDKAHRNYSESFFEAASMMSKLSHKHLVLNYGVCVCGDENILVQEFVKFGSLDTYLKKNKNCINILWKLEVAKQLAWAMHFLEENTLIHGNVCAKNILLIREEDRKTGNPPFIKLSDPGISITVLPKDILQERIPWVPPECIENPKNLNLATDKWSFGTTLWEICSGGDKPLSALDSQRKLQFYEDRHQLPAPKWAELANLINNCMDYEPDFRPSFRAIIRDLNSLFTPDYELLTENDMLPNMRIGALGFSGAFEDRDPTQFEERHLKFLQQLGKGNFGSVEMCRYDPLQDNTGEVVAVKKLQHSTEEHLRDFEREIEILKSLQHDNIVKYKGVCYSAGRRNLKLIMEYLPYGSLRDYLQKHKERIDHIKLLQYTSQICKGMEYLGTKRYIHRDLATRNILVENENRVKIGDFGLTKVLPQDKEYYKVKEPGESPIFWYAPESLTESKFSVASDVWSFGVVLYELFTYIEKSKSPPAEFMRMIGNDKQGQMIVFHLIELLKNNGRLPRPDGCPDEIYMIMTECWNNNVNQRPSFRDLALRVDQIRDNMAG
Protocol: as §1, §2, §3

AURKB (Aurora B) = AURKB (Aurora B) (Homo sapiens (Human), UniProt Q96GD4)
Sequence of AURKB (Aurora B) (Q96GD4 whole entry): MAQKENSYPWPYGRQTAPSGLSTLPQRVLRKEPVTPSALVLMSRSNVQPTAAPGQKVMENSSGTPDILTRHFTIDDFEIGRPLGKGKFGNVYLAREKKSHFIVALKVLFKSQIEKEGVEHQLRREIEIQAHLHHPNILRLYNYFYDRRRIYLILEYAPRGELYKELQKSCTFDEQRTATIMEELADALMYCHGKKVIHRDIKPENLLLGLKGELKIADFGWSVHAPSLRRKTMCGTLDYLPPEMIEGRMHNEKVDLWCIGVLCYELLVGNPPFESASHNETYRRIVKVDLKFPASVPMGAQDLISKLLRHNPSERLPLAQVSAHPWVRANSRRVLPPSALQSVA
Protocol: as §1, §2, §3

PTK2 (FAK) = PTK2 (FAK) (Homo sapiens (Human), UniProt Q05397)
Protocol: as §1, §2, §3

NUK1 (ARK5) = NUK1 (ARK5) (Homo sapiens (Human), UniProt O60285)
Protocol: as §1, §2, §3

CHUK (IKKalpha) = CHUK (IKKalpha) (Homo sapiens (Human), UniProt O15111)
Protocol: as §1, §2, §3

ROCK2 = ROCK2 (Homo sapiens (Human), UniProt O75116)
Protocol: as §1, §2, §3

RET = RET (Homo sapiens (Human), UniProt P07949)
Sequence of RET (P07949 29-1114): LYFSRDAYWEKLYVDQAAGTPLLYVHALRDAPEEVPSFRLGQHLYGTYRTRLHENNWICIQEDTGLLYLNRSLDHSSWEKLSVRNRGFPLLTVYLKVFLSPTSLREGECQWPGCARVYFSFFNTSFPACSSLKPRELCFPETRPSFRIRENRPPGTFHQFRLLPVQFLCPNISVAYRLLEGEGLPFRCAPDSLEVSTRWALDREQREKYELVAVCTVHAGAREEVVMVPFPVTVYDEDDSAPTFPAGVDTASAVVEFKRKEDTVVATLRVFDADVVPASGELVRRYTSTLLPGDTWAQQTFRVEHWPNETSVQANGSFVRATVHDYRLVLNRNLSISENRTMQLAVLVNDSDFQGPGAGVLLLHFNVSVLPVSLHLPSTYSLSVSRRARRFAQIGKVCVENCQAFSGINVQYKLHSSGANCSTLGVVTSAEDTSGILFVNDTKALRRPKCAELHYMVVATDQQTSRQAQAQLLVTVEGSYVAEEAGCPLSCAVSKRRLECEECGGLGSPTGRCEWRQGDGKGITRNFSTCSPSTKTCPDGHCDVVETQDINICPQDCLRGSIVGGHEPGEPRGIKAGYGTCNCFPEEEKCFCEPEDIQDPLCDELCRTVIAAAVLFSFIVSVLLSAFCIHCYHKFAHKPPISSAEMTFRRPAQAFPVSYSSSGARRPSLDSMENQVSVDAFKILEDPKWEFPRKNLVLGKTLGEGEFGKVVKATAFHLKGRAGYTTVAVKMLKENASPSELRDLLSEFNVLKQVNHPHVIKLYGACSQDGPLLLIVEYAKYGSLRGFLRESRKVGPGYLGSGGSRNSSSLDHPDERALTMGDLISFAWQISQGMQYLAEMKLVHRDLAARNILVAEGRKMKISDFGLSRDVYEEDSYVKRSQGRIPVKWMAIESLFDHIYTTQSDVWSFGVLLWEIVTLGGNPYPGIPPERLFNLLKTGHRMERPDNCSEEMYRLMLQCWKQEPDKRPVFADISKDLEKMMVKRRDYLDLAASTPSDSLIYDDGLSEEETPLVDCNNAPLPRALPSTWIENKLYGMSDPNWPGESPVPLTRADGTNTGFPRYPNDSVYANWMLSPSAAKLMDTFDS
Protocol: as §1, §2, §3

PRKAA (PKA) = PRKAA (PKA) (Homo sapiens (Human), UniProt P17612)
Protocol: as §1, §2, §3

FLT4 (VEGFR3) = FLT4 (VEGFR3) (Homo sapiens (Human), UniProt P35916)
Protocol: as §1, §2, §3

LCK = LCK (Homo sapiens (Human), UniProt P06239)
Protocol: as §1, §2, §3

MAPK1 (ERK2) = MAPK1 (ERK2) (Homo sapiens (Human), UniProt P28482)
Sequence of MAPK1 (ERK2) (P28482 whole entry): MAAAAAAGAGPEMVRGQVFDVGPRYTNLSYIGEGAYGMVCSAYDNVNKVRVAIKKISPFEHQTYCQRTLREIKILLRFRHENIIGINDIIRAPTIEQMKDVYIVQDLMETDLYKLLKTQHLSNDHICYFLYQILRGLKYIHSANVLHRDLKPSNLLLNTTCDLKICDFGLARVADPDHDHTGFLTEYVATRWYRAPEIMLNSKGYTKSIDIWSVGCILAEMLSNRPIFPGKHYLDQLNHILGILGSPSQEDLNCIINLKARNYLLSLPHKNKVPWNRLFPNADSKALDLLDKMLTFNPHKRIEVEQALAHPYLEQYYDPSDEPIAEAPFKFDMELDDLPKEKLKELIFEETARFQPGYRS
Protocol: as §1, §2, §3

NTRK1 (TRKA) = NTRK1 (TRKA) (Homo sapiens (Human), UniProt P04629)
Protocol: as §1, §2, §3

KIT = KIT (Homo sapiens (Human), UniProt P10721)
Protocol: as §1, §2, §3

ZAP70 = ZAP70 (Homo sapiens (Human), UniProt P43403)
Protocol: as §1, §2, §3

RPS6KA1 (RSX1) = RPS6KA1 (RSX1) (Homo sapiens (Human), UniProt Q15418)
Protocol: as §1, §2, §3

ALK = ALK (Homo sapiens (Human), UniProt Q9UM73)
Protocol: as §1, §2, §3

CSF1R (FMS) = CSF1R (FMS) (Homo sapiens (Human), UniProt P07333)
Protocol: as §1, §2, §3

JAK3 = JAK3 (Homo sapiens (Human), UniProt P52333)
Protocol: as §1, §2, §3

ROS1 = ROS1 (Homo sapiens (Human), UniProt P08922)
Protocol: as §1, §2, §3

FLT1 (VEGFR1) = FLT1 (VEGFR1) (Homo sapiens (Human), UniProt P17948)
Sequence of FLT1 (VEGFR1) (P17948 27-1338): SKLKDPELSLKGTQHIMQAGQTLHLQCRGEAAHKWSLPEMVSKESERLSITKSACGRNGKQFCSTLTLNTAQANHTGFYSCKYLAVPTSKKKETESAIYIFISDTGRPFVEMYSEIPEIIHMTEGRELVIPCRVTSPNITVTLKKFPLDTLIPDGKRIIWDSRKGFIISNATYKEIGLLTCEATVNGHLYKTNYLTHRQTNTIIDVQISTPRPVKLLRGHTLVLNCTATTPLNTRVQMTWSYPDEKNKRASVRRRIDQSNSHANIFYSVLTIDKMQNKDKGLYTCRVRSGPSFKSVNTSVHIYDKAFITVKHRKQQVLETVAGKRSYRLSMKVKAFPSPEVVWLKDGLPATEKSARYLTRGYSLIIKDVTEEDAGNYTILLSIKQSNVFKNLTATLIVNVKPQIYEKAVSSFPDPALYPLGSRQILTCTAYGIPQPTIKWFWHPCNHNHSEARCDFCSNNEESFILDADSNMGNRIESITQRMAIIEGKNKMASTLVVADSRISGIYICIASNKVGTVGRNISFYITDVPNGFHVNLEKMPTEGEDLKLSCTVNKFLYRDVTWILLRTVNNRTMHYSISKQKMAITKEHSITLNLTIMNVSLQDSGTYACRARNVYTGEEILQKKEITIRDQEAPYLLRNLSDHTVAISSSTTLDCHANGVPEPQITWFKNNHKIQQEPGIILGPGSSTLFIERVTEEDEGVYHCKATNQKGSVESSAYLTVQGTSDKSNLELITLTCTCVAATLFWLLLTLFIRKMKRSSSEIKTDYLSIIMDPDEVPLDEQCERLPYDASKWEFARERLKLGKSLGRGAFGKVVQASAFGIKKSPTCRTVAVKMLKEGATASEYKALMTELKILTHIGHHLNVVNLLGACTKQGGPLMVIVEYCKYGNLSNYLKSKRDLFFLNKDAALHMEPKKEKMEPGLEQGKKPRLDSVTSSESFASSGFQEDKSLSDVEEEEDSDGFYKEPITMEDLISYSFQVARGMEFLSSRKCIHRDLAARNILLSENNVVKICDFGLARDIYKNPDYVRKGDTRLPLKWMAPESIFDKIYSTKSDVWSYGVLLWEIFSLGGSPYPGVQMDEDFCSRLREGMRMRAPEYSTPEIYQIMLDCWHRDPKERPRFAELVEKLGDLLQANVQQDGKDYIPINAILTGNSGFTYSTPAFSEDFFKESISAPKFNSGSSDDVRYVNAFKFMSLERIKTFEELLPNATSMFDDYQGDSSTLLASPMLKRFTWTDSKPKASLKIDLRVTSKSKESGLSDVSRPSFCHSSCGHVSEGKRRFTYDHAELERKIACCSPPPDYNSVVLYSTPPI
Protocol: as §1, §2, §3

SRC = SRC (Homo sapiens (Human), UniProt P12931)
Protocol: as §1, §2, §3

TEK (Tie2) = TEK (Tie2) (Homo sapiens (Human), UniProt Q02763)
Protocol: as §1, §2, §3

YES1 = YES1 (Homo sapiens (Human), UniProt P07947)
Protocol: as §1, §2, §3

KDR (VEGFR2) = KDR (VEGFR2) (Homo sapiens (Human), UniProt P35968)
Protocol: as §1, §2, §3

MET (cMet) = MET (cMet) (Homo sapiens (Human), UniProt P08581)
Protocol: as §1, §2, §3

CSK = CSK (Homo sapiens (Human), UniProt P41240)
Protocol: as §1, §2, §3

BTK = BTK (Homo sapiens (Human), UniProt Q06187)
Protocol: as §1, §2, §3

ABL1 = ABL1 (Homo sapiens (Human), UniProt P00519)
Protocol: as §1, §2, §3

SYK = SYK (Homo sapiens (Human), UniProt P43405)
Protocol: as §1, §2, §3

## CN1CCN(Cc2cccc(-c3cnc4[nH]cc(-c5cc(NC(=O)Nc6ccccc6)ccc5F)c4c3)c2)CC1 [Compound 3]
NTRK2 (TRKB)
  Percentage inhibition NTRK2 (TRKB): 94%
IKBKB (IKK beta)
  Percentage inhibition IKBKB (IKK beta): 13%
PDGFRA (PDGFR alpha)
  Percentage inhibition PDGFRA (PDGFR alpha): 21%
FGFR2
  Percentage inhibition FGFR2: 37%
FGFR1
  Percentage inhibition FGFR1: 27%
PLK1
  Percentage inhibition PLK1: 6%
JAK2
  Percentage inhibition JAK2: 13%
AURKB (Aurora B)
  Percentage inhibition AURKB (Aurora B): 38%
PTK2 (FAK)
  Percentage inhibition PTK2 (FAK): 24%
NUK1 (ARK5)
  Percentage inhibition NUK1 (ARK5): 14%
CHUK (IKKalpha)
  Percentage inhibition CHUK (IKKalpha): 4%
ROCK2
  Percentage inhibition ROCK2: 9%
RET
  Percentage inhibition RET: 23%
PRKAA (PKA)
  Percentage inhibition PRKAA (PKA): 7%
FLT4 (VEGFR3)
  Percentage inhibition FLT4 (VEGFR3): 37%
LCK
  Percentage inhibition LCK: 42%
MAPK1 (ERK2)
  Percentage inhibition MAPK1 (ERK2): 6%
NTRK1 (TRKA)
  Percentage inhibition NTRK1 (TRKA): 69%
KIT
  Percentage inhibition KIT: 15%
ZAP70
  Percentage inhibition ZAP70: 5%
RPS6KA1 (RSX1)
  Percentage inhibition RPS6KA1 (RSX1): 41%
ALK
  Percentage inhibition ALK: 17%
CSF1R (FMS)
  Percentage inhibition CSF1R (FMS): 26%
JAK3
  Percentage inhibition JAK3: 13%
ROS1
  Percentage inhibition ROS1: 18%
FLT1 (VEGFR1)
  Percentage inhibition FLT1 (VEGFR1): 19%
SRC
  Percentage inhibition SRC: 10%
TEK (Tie2)
  Percentage inhibition TEK (Tie2): 27%
YES1
  Percentage inhibition YES1: 11%
KDR (VEGFR2)
  Percentage inhibition KDR (VEGFR2): 55%
MET (cMet)
  Percentage inhibition MET (cMet): 16%
CSK
  Percentage inhibition CSK: 8%
BTK
  Percentage inhibition BTK: 10%
ABL1
  Percentage inhibition ABL1: 22%
SYK
  Percentage inhibition SYK: 8%

## CN1CCN(Cc2cccc(-c3cnc4[nH]cc(-c5cc(CNCc6ccccc6)ccc5F)c4c3)c2)CC1 [Compound 2]
NTRK2 (TRKB)
  Percentage inhibition NTRK2 (TRKB): 103%
IKBKB (IKK beta)
  Percentage inhibition IKBKB (IKK beta): 28%
PDGFRA (PDGFR alpha)
  Percentage inhibition PDGFRA (PDGFR alpha): 31%
FGFR2
  Percentage inhibition FGFR2: 25%
FGFR1
  Percentage inhibition FGFR1: 20%
PLK1
  Percentage inhibition PLK1: 4%
JAK2
  Percentage inhibition JAK2: 23%
AURKB (Aurora B)
  Percentage inhibition AURKB (Aurora B): 20%
PTK2 (FAK)
  Percentage inhibition PTK2 (FAK): 33%
NUK1 (ARK5)
  Percentage inhibition NUK1 (ARK5): 16%
CHUK (IKKalpha)
  Percentage inhibition CHUK (IKKalpha): 14%
ROCK2
  Percentage inhibition ROCK2: 5%
RET
  Percentage inhibition RET: 48%
PRKAA (PKA)
  Percentage inhibition PRKAA (PKA): 6%
FLT4 (VEGFR3)
  Percentage inhibition FLT4 (VEGFR3): 33%
LCK
  Percentage inhibition LCK: 63%
MAPK1 (ERK2)
  Percentage inhibition MAPK1 (ERK2): 6%
NTRK1 (TRKA)
  Percentage inhibition NTRK1 (TRKA): 96%
KIT
  Percentage inhibition KIT: 49%
ZAP70
  Percentage inhibition ZAP70: 4%
RPS6KA1 (RSX1)
  Percentage inhibition RPS6KA1 (RSX1): 16%
ALK
  Percentage inhibition ALK: 12%
CSF1R (FMS)
  Percentage inhibition CSF1R (FMS): 41%
JAK3
  Percentage inhibition JAK3: 18%
ROS1
  Percentage inhibition ROS1: 77%
FLT1 (VEGFR1)
  Percentage inhibition FLT1 (VEGFR1): 19%
SRC
  Percentage inhibition SRC: 16%
TEK (Tie2)
  Percentage inhibition TEK (Tie2): 88%
YES1
  Percentage inhibition YES1: 15%
KDR (VEGFR2)
  Percentage inhibition KDR (VEGFR2): 68%
MET (cMet)
  Percentage inhibition MET (cMet): 92%
CSK
  Percentage inhibition CSK: 12%
BTK
  Percentage inhibition BTK: 10%
ABL1
  Percentage inhibition ABL1: 16%
SYK
  Percentage inhibition SYK: 11%

## CN1CCN(Cc2cccc(-c3cnc4[nH]cc(-c5cc(CNCCc6ccc(O)cc6)ccc5F)c4c3)c2)CC1 [Compound 1]
NTRK2 (TRKB)
  Percentage inhibition NTRK2 (TRKB): 61%
IKBKB (IKK beta)
  Percentage inhibition IKBKB (IKK beta): 33%
PDGFRA (PDGFR alpha)
  Percentage inhibition PDGFRA (PDGFR alpha): 57%
FGFR2
  Percentage inhibition FGFR2: 58%
FGFR1
  Percentage inhibition FGFR1: 43%
PLK1
  Percentage inhibition PLK1: 4%
JAK2
  Percentage inhibition JAK2: 19%
AURKB (Aurora B)
  Percentage inhibition AURKB (Aurora B): 41%
PTK2 (FAK)
  Percentage inhibition PTK2 (FAK): 22%
NUK1 (ARK5)
  Percentage inhibition NUK1 (ARK5): 74%
CHUK (IKKalpha)
  Percentage inhibition CHUK (IKKalpha): 43%
ROCK2
  Percentage inhibition ROCK2: 16%
RET
  Percentage inhibition RET: 84%
PRKAA (PKA)
  Percentage inhibition PRKAA (PKA): 8%
FLT4 (VEGFR3)
  Percentage inhibition FLT4 (VEGFR3): 64%
LCK
  Percentage inhibition LCK: 50%
MAPK1 (ERK2)
  Percentage inhibition MAPK1 (ERK2): 11%
NTRK1 (TRKA)
  Percentage inhibition NTRK1 (TRKA): 53%
KIT
  Percentage inhibition KIT: 8%
ZAP70
  Percentage inhibition ZAP70: 4%
RPS6KA1 (RSX1)
  Percentage inhibition RPS6KA1 (RSX1): 38%
ALK
  Percentage inhibition ALK: 45%
CSF1R (FMS)
  Percentage inhibition CSF1R (FMS): 62%
JAK3
  Percentage inhibition JAK3: 42%
ROS1
  Percentage inhibition ROS1: 64%
FLT1 (VEGFR1)
  Percentage inhibition FLT1 (VEGFR1): 53%
SRC
  Percentage inhibition SRC: 19%
TEK (Tie2)
  Percentage inhibition TEK (Tie2): 13%
YES1
  Percentage inhibition YES1: 18%
KDR (VEGFR2)
  Percentage inhibition KDR (VEGFR2): 85%
MET (cMet)
  Percentage inhibition MET (cMet): 15%
CSK
  Percentage inhibition CSK: 7%
BTK
  Percentage inhibition BTK: 12%
ABL1
  Percentage inhibition ABL1: 38%
SYK
  Percentage inhibition SYK: 4%
